The values that follow come from patent US20230399312A1, “SUBSTITUTED PYRIMIDINES AND METHODS OF USE” (THERAVANCE BIOPHARMA R&D IP, LLC, priority 2020, published 2023).

Test [1] addresses T1, recombinant human ALK5 (TGF-βR1) protein (Homo sapiens, UniProt P36897).
T1 construct: purchased Life Technologies PR9075A
T1 sequence (P36897 34-503): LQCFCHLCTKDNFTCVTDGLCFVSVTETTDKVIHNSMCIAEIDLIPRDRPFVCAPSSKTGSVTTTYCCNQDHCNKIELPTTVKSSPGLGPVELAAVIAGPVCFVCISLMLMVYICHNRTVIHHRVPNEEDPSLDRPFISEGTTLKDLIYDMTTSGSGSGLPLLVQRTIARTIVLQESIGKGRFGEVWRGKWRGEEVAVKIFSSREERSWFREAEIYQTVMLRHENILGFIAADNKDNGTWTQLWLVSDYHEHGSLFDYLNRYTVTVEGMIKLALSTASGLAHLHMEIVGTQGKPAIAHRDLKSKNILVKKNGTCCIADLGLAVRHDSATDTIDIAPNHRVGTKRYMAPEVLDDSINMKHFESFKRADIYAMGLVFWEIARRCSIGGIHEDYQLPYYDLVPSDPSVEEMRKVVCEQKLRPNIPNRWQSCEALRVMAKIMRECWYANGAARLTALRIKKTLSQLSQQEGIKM
As to the kind of experiment: Biochemical ALK5 (TGF-βR1) assay to measure pKi (LANCE Ultra ULight kinase assay). The following applies: apparent pKi, converted from pIC50 by Cheng-Prusoff. Put shortly:
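Enzyme preincubated with compound for 60 min at room temperature, then reacted with ATP (125 μM as 5× stock) for 60 min at 37 °C. Stopped with EDTA plus Eu-anti-phospho-Topoisomerase 2-alpha (Thr1342) antibody and read by TR-FRET at 665 nm. pIC50 from a 4-parameter fit, converted to pKi by Cheng-Prusoff.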

Test [2] concerns TGF-β-stimulated SMAD3 phosphorylation in BEAS-2B cells. As to the kind of experiment: Cellular ALK5 potency assay, inhibition of TGF-β stimulated pSMAD3 formation in BEAS-2B cells. It counts as cell-based. The following applies: Homo sapiens, pSMAD3, TGF-β 10 ng/mL, read-out: BEAS2B pIC50 (converted). The essentials: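 Human lung epithelial BEAS-2B cells were preincubated 1 h at 37 °C with compound in HBSS/HEPES/1% BSA, then stimulated 30 min with 10 ng/mL TGF-β. pSMAD3 in lysates was quantified by AlphaLISA relative to untreated stimulated cells; reported as pIC50.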

With `Cc1cccc(-c2nccc(Nc3ccnc(Nc4ccc(C(=O)OCCN5C[C@@H](C)N[C@@H](C)C5)nc4)n3)n2)n1` [Compound 589, 2-[(3R,5S)-3,5-dimethylpiperazin-1-yl]ethyl 5-[[4-[[2-(6-methyl-2-pyridyl)pyrimidin-4-yl]amino]pyrimidin-2-yl]amino]pyridine-2-carboxylate], the Ki in test [1] is 0.398 to 3.16 nM. Further, the IC50 in test [2] was 25.1 to 158 nM.

Turning to `Cc1cccc(-c2nccc(Nc3ccnc(Nc4csc(C(=O)OC[C@H]5CC[C@H](N)CC5)c4)n3)n2)n1` [Compound 590, (4-aminocyclohexyl)methyl 4-[[4-[[2-(6-methyl-2-pyridyl)pyrimidin-4-yl]amino]pyrimidin-2-yl]amino]thiophene-2-carboxylate], the Ki in test [1] is 0.0398 to 0.316 nM. In addition, the IC50 in test [2] is 25.1 to 158 nM.

In the case of `Cc1cccc(-c2nccc(Nc3ccnc(Nc4csc(C(=O)OC5CCNCC5)c4)n3)n2)n1` [Compound 591, 4-piperidyl 4-[[4-[[2-(6-methyl-2-pyridyl)pyrimidin-4-yl]amino]pyrimidin-2-yl]amino]thiophene-2-carboxylate], the Ki in test [1] is 0.0398 to 0.316 nM. In addition, in test [2], the IC50 is 25.1 to 158 nM.

As for `Cc1cccc(-c2nccc(Nc3ccnc(Nc4ncc(C(=O)OC[C@H]5CCCN5)s4)n3)n2)n1` [Compound 592, [(2R)-pyrrolidin-2-yl]methyl 2-[[4-[[2-(6-methyl-2-pyridyl)pyrimidin-4-yl]amino]pyrimidin-2-yl]amino]thiazole-5-carboxylate], the Ki in test [1] is 3.98 to 31.6 nM. For the same molecule, the IC50 in test [2] was 25.1 to 158 nM.

Take `Cc1cccc(-c2nccc(Nc3ccnc(Nc4nc(C(=O)OC[C@H]5CCCN5)cs4)n3)n2)n1` [Compound 593, [(2R)-pyrrolidin-2-yl]methyl 2-[[4-[[2-(6-methyl-2-pyridyl)pyrimidin-4-yl]amino]pyrimidin-2-yl]amino]thiazole-4-carboxylate]: the Ki in test [1] was 0.398 to 3.16 nM. Also, in test [2], the IC50 was 25.1 to 158 nM.

With `Cc1cccc(-c2nccc(Nc3ccnc(Nc4ccc(C(=O)O[C@@H]5CCCNC5)nc4)n3)n2)n1` [Compound 594, [(3R)-3-piperidyl] 5-[[4-[[2-(6-methyl-2-pyridyl)pyrimidin-4-yl]amino]pyrimidin-2-yl]amino]pyridine-2-carboxylate], in test [1], the Ki was 0.0398 to 0.316 nM. For the same molecule, the IC50 in test [2] was 200 to 1260 nM.

For `Cc1cccc(-c2nccc(Nc3ccnc(Nc4cncc(C(=O)OC[C@@H]5CCCNC5)c4)n3)n2)n1` [Compound 595], the Ki in test [1] was 0.398 to 3.16 nM. Besides, the IC50 in test [2] was 25.1 to 158 nM.

Regarding `Cc1cccc(-c2nccc(Nc3ccnc(Nc4ccc(C(=O)OC5CCCNCC5)nc4)n3)n2)n1` (stereo not drawn) [Compound 596, azepan-4-yl 5-[[4-[[2-(6-methyl-2-pyridyl)pyrimidin-4-yl]amino]pyrimidin-2-yl]amino]pyridine-2-carboxylate], the Ki in test [1] was 0.0398 to 0.316 nM. In test [2], the IC50 is 200 to 1260 nM.

As to `Cc1cccc(-c2nccc(Nc3ccnc(Nc4ccc(C(=O)OC[C@@H]5CCCCN5)nc4)n3)n2)n1` [Compound 597, [(2S)-2-piperidyl]methyl 5-[[4-[[2-(6-methyl-2-pyridyl)pyrimidin-4-yl]amino]pyrimidin-2-yl]amino]pyridine-2-carboxylate], the Ki in test [1] was 0.0398 to 0.316 nM. For the same molecule, the IC50 in test [2] was 25.1 to 158 nM.

Consider `Cc1cccc(-c2nccc(Nc3ccnc(Nc4csc(C(=O)OCCN5CCC[C@@H](N)C5)c4)n3)n2)n1` [Compound 598, 2-[(3R)-3-amino-1-piperidyl]ethyl 4-[[4-[[2-(6-methyl-2-pyridyl)pyrimidin-4-yl]amino]pyrimidin-2-yl]amino]thiophene-2-carboxylate], for which, in test [1], the Ki was 0.0398 to 0.316 nM. The IC50 in test [2] was 25.1 to 158 nM.

Regarding `Cc1cccc(-c2nccc(Nc3ccnc(Nc4csc(C(=O)OCCN5CCN6CCCC6C5)c4)n3)n2)n1` (stereo not drawn) [Compound 599, 2-(3,4,6,7,8,8a-hexahydro-1H-pyrrolo[1,2-a]pyrazin-2-yl)ethyl 4-[[4-[[2-(6-methyl-2-pyridyl)pyrimidin-4-yl]amino]pyrimidin-2-yl]amino]thiophene-2-carboxylate], the Ki in test [1] was 0.0398 to 0.316 nM. The IC50 in test [2] was 25.1 to 158 nM.

For the molecule `Cc1cccc(-c2nccc(Nc3ccnc(Nc4csc(C(=O)OC[C@H]5CCCNC5)c4)n3)n2)n1` [Compound 600, [(3S)-3-piperidyl]methyl 4-[[4-[[2-(6-methyl-2-pyridyl)pyrimidin-4-yl]amino]pyrimidin-2-yl]amino]thiophene-2-carboxylate], the Ki in test [1] was 0.0398 to 0.316 nM. For the same molecule, the IC50 in test [2] was 25.1 to 158 nM.

For `Cc1cccc(-c2nccc(Nc3ccnc(Nc4cc(C(=O)O[C@@H]5CCNC5)ccn4)n3)n2)n1` [Compound 601, [(3R)-pyrrolidin-3-yl] 2-[[4-[[2-(6-methyl-2-pyridyl)pyrimidin-4-yl]amino]pyrimidin-2-yl]amino]pyridine-4-carboxylate], the Ki in test [1] is 3.98 to 31.6 nM. For the same molecule, the IC50 in test [2] was 200 to 1260 nM.

Regarding `Cc1cccc(-c2nccc(Nc3ccnc(Nc4csc(C(=O)OCCC5CNC5)c4)n3)n2)n1` [Compound 602, 2-(azetidin-3-yl)ethyl 4-[[4-[[2-(6-methyl-2-pyridyl)pyrimidin-4-yl]amino]pyrimidin-2-yl]amino]thiophene-2-carboxylate], in test [1], the Ki is 0.0398 to 0.316 nM. Further, the IC50 in test [2] is 25.1 to 158 nM.

As for `Cc1cccc(-c2nccc(Nc3ccnc(Nc4cncc(CN5CC(C(=O)O)C5)c4)n3)n2)n1` [Compound 603, 1-[[5-[[4-[[2-(6-methyl-2-pyridyl)pyrimidin-4-yl]amino]pyrimidin-2-yl]amino]-3-pyridyl]methyl]azetidine-3-carboxylic acid], in test [1], the Ki is 0.0398 to 0.316 nM. In test [2], the IC50 is 1580 to 10000 nM.

For the molecule `Cc1cccc(-c2nccc(Nc3ccnc(Nc4ncc(N5C[C@@H](C)N[C@@H](C)C5)s4)n3)n2)n1` [Compound 604, N2-[5-[(3R,5S)-3,5-dimethylpiperazin-1-yl]thiazol-2-yl]-N4-[2-(6-methyl-2-pyridyl)pyrimidin-4-yl]pyrimidine-2,4-diamine], the Ki in test [1] was 3.98 to 31.6 nM. Besides, the IC50 in test [2] is 200 to 1260 nM.

`Cc1cccc(-c2nccc(Nc3ccnc(Nc4ccc(C(=O)OC[C@H]5CNCCO5)nc4)n3)n2)n1` [Compound 605, [(2R)-morpholin-2-yl]methyl 5-[[4-[[2-(6-methyl-2-pyridyl)pyrimidin-4-yl]amino]pyrimidin-2-yl]amino]pyridine-2-carboxylate]: in test [1], the Ki is 0.0398 to 0.316 nM. In addition, the IC50 in test [2] is 200 to 1260 nM.

On to `Cc1cccc(-c2nccc(Nc3ccnc(Nc4cncc(C(=O)OCC5CCNCC5)c4)n3)n2)n1` [Compound 606, 4-piperidylmethyl 5-[[4-[[2-(6-methyl-2-pyridyl)pyrimidin-4-yl]amino]pyrimidin-2-yl]amino]pyridine-3-carboxylate], for which, in test [1], the Ki was 0.398 to 3.16 nM. The IC50 in test [2] is 25.1 to 158 nM.

Take `Cc1cccc(-c2nccc(Nc3ccnc(Nc4csc(C(=O)OCC5CCNCC5)c4)n3)n2)n1` [Compound 607, 4-piperidylmethyl 4-[[4-[[2-(6-methyl-2-pyridyl)pyrimidin-4-yl]amino]pyrimidin-2-yl]amino]thiophene-2-carboxylate]: the Ki in test [1] is 0.0398 to 0.316 nM. Moreover, the IC50 in test [2] was 25.1 to 158 nM.

With `Cc1cccc(-c2nccc(Nc3ccnc(Nc4cc(C(=O)OCC5CNC5)ccn4)n3)n2)n1` [Compound 608, azetidin-3-ylmethyl 2-[[4-[[2-(6-methyl-2-pyridyl)pyrimidin-4-yl]amino]pyrimidin-2-yl]amino]pyridine-4-carboxylate], in test [1], the Ki is 3.98 to 31.6 nM. Also, the IC50 in test [2] is 200 to 1260 nM.

On to `Cc1cccc(-c2nccc(Nc3ccnc(Nc4ncc(C5=CCNC5)s4)n3)n2)n1` [Compound 609, N2-[5-(2,5-dihydro-1H-pyrrol-3-yl)thiazol-2-yl]-N4-[2-(6-methyl-2-pyridyl)pyrimidin-4-yl]pyrimidine-2,4-diamine], for which the Ki in test [1] is 0.398 to 3.16 nM. Moreover, the IC50 in test [2] is 25.1 to 158 nM.

With `Cc1cccc(-c2nccc(Nc3ccnc(Nc4ccnc(C(=O)O)c4)n3)n2)n1` [Compound 610, 4-[[4-[[2-(6-methyl-2-pyridyl)pyrimidin-4-yl]amino]pyrimidin-2-yl]amino]pyridine-2-carboxylic acid], the Ki in test [1] is 0.0398 to 0.316 nM. Also, the IC50 in test [2] is 1580 to 10000 nM.

In the case of `Cc1cccc(-c2nccc(Nc3ccnc(Nc4nc(C(=O)OC[C@@H]5CCNC5)cs4)n3)n2)n1` [Compound 611, [(3R)-pyrrolidin-3-yl]methyl 2-[[4-[[2-(6-methyl-2-pyridyl)pyrimidin-4-yl]amino]pyrimidin-2-yl]amino]thiazole-4-carboxylate], the Ki in test [1] is 0.398 to 3.16 nM. Moreover, in test [2], the IC50 was 200 to 1260 nM.

For `Cc1cccc(-c2nccc(Nc3ccnc(Nc4ccc(C(=O)OC[C@@H]5CCCN5)nc4)n3)n2)n1` [Compound 612, [(2S)-pyrrolidin-2-yl]methyl 5-[[4-[[2-(6-methyl-2-pyridyl)pyrimidin-4-yl]amino]pyrimidin-2-yl]amino]pyridine-2-carboxylate], the Ki in test [1] was 0.0398 to 0.316 nM. For the same molecule, the IC50 in test [2] is 25.1 to 158 nM.
